PubChem BioAssay AID1963969 (Molecular Pharmacology Branch, DTP, NCI, 2024)

Test system: 817829-284-R-J1-PDC multi-cell spheroid viability
Experiment: Anticancer human tumor 817829-284-R-J1-PDC patient-derived colon adenocarcinoma cell line growth inhibition [PI3K]
Conditions: for IC50: curve of first compound; for viability, T/C: stronger effect = lower value
Summary of the method: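 We assembled tumor spheroids that included a stromal compartment of HUVEC and MSCs, then exposed them to targeted agents alone and together with PI3K pathway inhibitors. Concentration series descended by half-log from clinically achievable Cmax levels. Viability served as the endpoint.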

[1] = second compound 0.0316 µM, first compound 0.00316 µM
[2] = second compound 0.0316 µM, first compound 0.01 µM
[3] = second compound 0.0316 µM, first compound 0.0316 µM
[4] = second compound 0.0316 µM, first compound 0.1 µM
[5] = second compound 0.0316 µM, first compound 0.316 µM
[6] = second compound 0.0316 µM, first compound 1 µM
[7] = second compound 0.1 µM, first compound 0.00316 µM
[8] = second compound 0.1 µM, first compound 0.01 µM
[9] = second compound 0.1 µM, first compound 0.0316 µM
[10] = second compound 0.1 µM, first compound 0.1 µM
[11] = second compound 0.1 µM, first compound 0.316 µM
[12] = second compound 0.1 µM, first compound 1 µM
[13] = second compound 0.316 µM, first compound 0.00316 µM
[14] = second compound 0.316 µM, first compound 0.01 µM
[15] = second compound 0.316 µM, first compound 0.0316 µM
[16] = second compound 0.316 µM, first compound 0.1 µM
[17] = second compound 0.316 µM, first compound 0.316 µM
[18] = second compound 0.316 µM, first compound 1 µM
[19] = second compound 1 µM, first compound 0.00316 µM
[20] = second compound 1 µM, first compound 0.01 µM
[21] = second compound 1 µM, first compound 0.0316 µM
[22] = second compound 1 µM, first compound 0.1 µM
[23] = second compound 1 µM, first compound 0.316 µM
[24] = second compound 1 µM, first compound 1 µM
[25] = second compound 3.16 µM, first compound 0.00316 µM
[26] = second compound 3.16 µM, first compound 0.01 µM
[27] = second compound 3.16 µM, first compound 0.0316 µM
[28] = second compound 3.16 µM, first compound 0.1 µM
[29] = second compound 3.16 µM, first compound 0.316 µM
[30] = second compound 3.16 µM, first compound 1 µM
[31] = second compound 10 µM, first compound 0.00316 µM
[32] = second compound 10 µM, first compound 0.01 µM
[33] = second compound 10 µM, first compound 0.0316 µM
[34] = second compound 10 µM, first compound 0.1 µM
[35] = second compound 10 µM, first compound 0.316 µM
[36] = second compound 10 µM, first compound 1 µM
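Further: spheroids exposed to agents for seven days before readout.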
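Wherever viability, T/C is given: percent of vehicle DMSO control viability which is 100%.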

CCN1CCN(Cc2ccc(Nc3ncc(F)c(-c4cc(F)c5nc(C)n(C(C)C)c5c4)n3)nc2)CC1 + Cc1nc(NC(=O)N2CCCC2C(N)=O)sc1-c1ccnc(C(C)(C)C(F)(F)F)c1
IC50 (second compound 0.0316 µM): 0.638 µM
IC50 (second compound 0.1 µM): 0.316 µM
IC50 (second compound 0.316 µM): 0.325 µM
IC50 (second compound 1 µM): 0.122 µM
IC50 (second compound 3.16 µM): 0.0569 µM
IC50 (second compound 10 µM): 0.00696 µM
viability, T/C [1]: 75.4%
viability, T/C [2]: 55.4%
viability, T/C [3]: 90.8%
viability, T/C [4]: 52.5%
viability, T/C [5]: 66.5%
viability, T/C [6]: 42.1%
viability, T/C [7]: 91.5%
viability, T/C [8]: 70.8%
viability, T/C [9]: 112%
viability, T/C [10]: 46.7%
viability, T/C [11]: 64.4%
viability, T/C [12]: 59.1%
viability, T/C [13]: 76.4%
viability, T/C [14]: 53.1%
viability, T/C [15]: 74.9%
viability, T/C [16]: 49.9%
viability, T/C [17]: 48.2%
viability, T/C [18]: 47.1%
viability, T/C [19]: 76%
viability, T/C [20]: 63.5%
viability, T/C [21]: 56.5%
viability, T/C [22]: 47.8%
viability, T/C [23]: 51.5%
viability, T/C [24]: 43.7%
viability, T/C [25]: 53.1%
viability, T/C [26]: 63.5%
viability, T/C [27]: 61%
viability, T/C [28]: 39.4%
viability, T/C [29]: 41.6%
viability, T/C [30]: 42.6%
viability, T/C [31]: 66.1%
viability, T/C [32]: 35.1%
viability, T/C [33]: 51.9%
viability, T/C [34]: 38.4%
viability, T/C [35]: 46.7%
viability, T/C [36]: 41%

C[C@@H](NC(=O)c1ncnc(N)c1Cl)c1ncc(C(=O)Nc2cc(C(F)(F)F)c(Cl)cn2)s1 + Cc1nc(NC(=O)N2CCCC2C(N)=O)sc1-c1ccnc(C(C)(C)C(F)(F)F)c1
IC50 (second compound 0.0316 µM): > 10 µM
IC50 (second compound 0.1 µM): > 10 µM
IC50 (second compound 0.316 µM): > 10 µM
IC50 (second compound 1 µM): > 10 µM
IC50 (second compound 3.16 µM): > 10 µM
IC50 (second compound 10 µM): < 0.0316 µM
viability, T/C [3]: 106%
viability, T/C [4]: 74.4%
viability, T/C [5]: 71.9%
viability, T/C [6]: 68.5%
viability, T/C (second compound 0.0316 µM, first compound 3.16 µM): 96.3%
viability, T/C (second compound 0.0316 µM, first compound 10 µM): 88.2%
viability, T/C [9]: 77.5%
viability, T/C [10]: 86.3%
viability, T/C [11]: 81.1%
viability, T/C [12]: 72.4%
viability, T/C (second compound 0.1 µM, first compound 3.16 µM): 70.7%
viability, T/C (second compound 0.1 µM, first compound 10 µM): 83%
viability, T/C [15]: 79.8%
viability, T/C [16]: 85.9%
viability, T/C [17]: 61.9%
viability, T/C [18]: 59.4%
viability, T/C (second compound 0.316 µM, first compound 3.16 µM): 80.7%
viability, T/C (second compound 0.316 µM, first compound 10 µM): 65.6%
viability, T/C [21]: 56%
viability, T/C [22]: 86.5%
viability, T/C [23]: 74.9%
viability, T/C [24]: 96.6%
viability, T/C (second compound 1 µM, first compound 3.16 µM): 61.9%
viability, T/C (second compound 1 µM, first compound 10 µM): 93.9%
viability, T/C [27]: 73.8%
viability, T/C [28]: 53.8%
viability, T/C [29]: 70.5%
viability, T/C [30]: 84.8%
viability, T/C (second compound 3.16 µM, first compound 3.16 µM): 102%
viability, T/C (second compound 3.16 µM, first compound 10 µM): 74.5%
viability, T/C [33]: 45.7%
viability, T/C [34]: 31.2%
viability, T/C [35]: 61.7%
viability, T/C [36]: 54.3%
viability, T/C (second compound 10 µM, first compound 3.16 µM): 94.9%
viability, T/C (second compound 10 µM, first compound 10 µM): 42.3%

Cn1ncnc1[C@H]1c2n[nH]c(=O)c3cc(F)cc(c23)N[C@@H]1c1ccc(F)cc1 + Cc1nc(NC(=O)N2CCCC2C(N)=O)sc1-c1ccnc(C(C)(C)C(F)(F)F)c1
IC50 (second compound 0.0316 µM): 0.0251 µM
IC50 (second compound 0.1 µM): 0.0627 µM
IC50 (second compound 0.316 µM): 0.0072 µM
IC50 (second compound 1 µM): 0.0412 µM
IC50 (second compound 3.16 µM): 0.0163 µM
IC50 (second compound 10 µM): 0.0119 µM
viability, T/C (second compound 0.0316 µM, first compound 0.000316 µM): 60.7%
viability, T/C (second compound 0.0316 µM, first compound 0.001 µM): 77%
viability, T/C [1]: 72.5%
viability, T/C [2]: 55.1%
viability, T/C [3]: 49.4%
viability, T/C [4]: 48%
viability, T/C (second compound 0.1 µM, first compound 0.000316 µM): 78.6%
viability, T/C (second compound 0.1 µM, first compound 0.001 µM): 72.2%
viability, T/C [7]: 69.1%
viability, T/C [8]: 59.6%
viability, T/C [9]: 53.9%
viability, T/C [10]: 47.5%
viability, T/C (second compound 0.316 µM, first compound 0.000316 µM): 84.8%
viability, T/C (second compound 0.316 µM, first compound 0.001 µM): 87.2%
viability, T/C [13]: 55.5%
viability, T/C [14]: 55.8%
viability, T/C [15]: 37.2%
viability, T/C [16]: 50.2%
viability, T/C (second compound 1 µM, first compound 0.000316 µM): 59%
viability, T/C (second compound 1 µM, first compound 0.001 µM): 52.1%
viability, T/C [19]: 54.5%
viability, T/C [20]: 43.3%
viability, T/C [21]: 70.2%
viability, T/C [22]: 30.8%
viability, T/C (second compound 3.16 µM, first compound 0.000316 µM): 48.5%
viability, T/C (second compound 3.16 µM, first compound 0.001 µM): 72.7%
viability, T/C [25]: 60.7%
viability, T/C [26]: 62.6%
viability, T/C [27]: 33.1%
viability, T/C [28]: 36.8%
viability, T/C (second compound 10 µM, first compound 0.000316 µM): 49.9%
viability, T/C (second compound 10 µM, first compound 0.001 µM): 54.9%
viability, T/C [31]: 60.7%
viability, T/C [32]: 40.6%
viability, T/C [33]: 50.8%
viability, T/C [34]: 38.2%
